Reference: patent US6555533B2, “Use of certain substituted caprolactams in treating tumors” (Novartis AG, priority 1998, dated 2003)
Where two headings read alike, the source gives them in different places. Marks after values point to notes of the source that are not given here.

Columns and labels:
[1] = system: HCT-116 tumor xenografts; test: HCT-116 colon carcinoma xenograft model; type: in vivo, athymic (nu/nu) mice; settings: 75 mg/kg i.v. 1 time per week (positive control)
Description: Positive controls are carried out with 5-fluorouracil administered 1 time per week i.v.

[2] = system: MDA-MB-435 tumor xenografts; test: MDA-MB-435 breast carcinoma xenograft model; type: in vivo, athymic (nu/nu) mice
Description: Positive controls are carried out with doxorubicin administered 3 times per week i.v.
The following results were obtained for compounds of Ex.1-Ex.12 tested against MDA-MB-435 tumor xenografts 3×/week for 3 weeks: […]

[3] = system: MDA-MB-435 breast carcinoma; test: Anchorage Dependent Growth Monolayer Assay (ADGMA), MDA-MB-435; type: cell-based, human; settings: 3-day exposure, MTS readout, read-out: IC50 (average±S.D.) MDA-MB-435
Description: As indicated above, all of the compounds of formula I, and their corresponding pharmaceutically acceptable acid addition salts, are anti-tumor agents and are, therefore, useful in inhibiting the growth of various lymphomas, sarcomas, carcinomas, myelomas, and leukemia cell lines.
The ADGMA compares the number of viable cells following a 3-day exposure to a test compound relative to a number of cells present at the time the test compound was added. […] The absorbance at 490 nm (A490) of the formazan derivative is proportional to the number of viable cells. The IC50 for a test compound is the concentration of compound required to reduce the final cell number to 50% of the final control cell number. If cell proliferation is inhibited, the assay further defines compounds as cytostatic (cell number after 3-day compound incubation >cell number at time of compound addition) or cytotoxic (cell number after 3-day compound incubation <cell number at time of compound addition).
The MDA-MB-435 breast carcinoma line was obtained from the American Type Culture Collection (ATCC) and used between passages 4-20 following thawing. MDA-MB-435 breast carcinoma was maintained and plated in DME/F12 medium containing 10% fetal bovine serum, 15 mM HEPES (pH=7.4), 100 units/mL penicillin, and 100 μg/mL streptomycin.
Cell lines are trypsinized and counted using a Coulter counter to determine plating densities. Cells are then plated in their respective maintenance media (100 μL/well) in 96 well plates at the following densities: MDA-MB-435, 3,000 cells/well; A549 and HCT-116, 700 cells/well; are PC-3, 2500 cells/well. The number of cells plates as determined in preliminary experiments, results in cell densities of 75-90% of confluency by 4 days after plating. Initial cell densities, assayed one day after plating, are roughly 0.15-0.20 absorbance units greater than the media blank. Ninety-six well plates are seeded on day 0 and the test compounds are added on day 1. A control plate is created for each cell line that receives media only in row A and cells in row B. One day following plating, test compounds are added (in a final volume of 100 μL) to the test plates. Control plates receive 10 μL MTS mixture (prepared fresh on day of addition to cell plates at a ratio of 10 μL of a 0.92 mg/mL solution of PMS to a 190 μL of a 2 mg/mL solution of MTS) and 100 μL media. A490 of control plates is read 4 h after MTS addition to determine initial cell density values for each cell line. Three days after addition of test compound, 10 μL/well of MTS mixture is added to the test plates and A490 is read 4 h later. A490 values for wells containing cells are corrected for media absorbance, then normalized to initial density readings to determine percent net growth. IC50 values are determined from graphs of percent net growth as a function of compound concentration. Percent net growth is calculated as (Cell+Drug A490−Initial A490/Cell+Drug Vehicle A490−Initial A490).

[4] = system: A549 tumor xenografts
Excerpt: Utilizing this model, one can measure the ability of test compounds to inhibit the growth of human tumor xenografts growing subcutaneously (s.c.) in athymic nude mice. The histologic tumor types employed were MDA-MB-435 breast, A549 non-small cell lung, HCT-116 colon and PC-3 prostate carcinomas.
A549 non-small cell lung carcinoma xenograft model: Briefly, 10 million cells were implanted s.c. into the right flank of athymic (nu/nu) mice, and were allowed to grow until a mass of approximately 120 mm^3 was established. The test compounds are administered three times per week intravenously (i.v.) for three weeks in 5% dextrose, 10%DMSO in water. The test compounds are administered in dose-response fashion in order to evaluate and document the full potential range of activity (efficacy and toxicity) for a given compound. Positive controls are carried out with mitomycin C administered 3 times per week intraperitioneally (i.p.).
Toxicity was monitored by recording average group body weights twice weekly, and by daily observation of general health. Efficacy was monitored by taking measurements of tumor length, width, and depth weekly using digital calipers coupled to automated data collectors. Mean tumor volume (MTV) at initiation of therapy was subtracted from final MTV in order to express the actual tumor growth during treatment (ΔMTV). Anti-tumor activity was expressed as %T/C (ΔMTV of treated group÷ΔMTV of control group×100). Regressions were calculated using the formula: (T/T0−1)×100%, where T is the tumor volume for the treatment group at the end of the experiment, and T0 is the tumor volume at the beginning of the experiment. Statistical significance was evaluated using a one-tailed Student's t-test (p<0.05).

[5] = system: PC-3 tumor xenografts; test: PC-3 prostate carcinoma xenograft model; type: in vivo, athymic (nu/nu) mice; settings: 15 mg/kg i.v. daily for the first five days (positive control)
[6] = 10 μmol/kg i.v. 3×/week for 3 weeks
[7] = 33 μmol/kg i.v. 3×/week for 3 weeks
[8] = 2 mg/kg i.p. 3 times per week (positive control)

Structure (SMILES)	% T/C [2, 6]	Dead/Total [2, 6]	% T/C [2, 7]	Dead/Total [2, 7]	also measured
O=c1[nH]cc(F)c(=O)[nH]1 [5-fluorouracil, reference compound]	–	–	–	–	% T/C [1]: 16* %; Dead/Total [1]: 0/8; Δ MTV [1]: 65 mm^3
CO[C@@H](C(=O)N[C@H]1CC[C@@H](OC(=O)C2CCCCCC2)CNC1=O)[C@H](O)[C@@H](O)[C@H](O)/C=C/C(C)(C)C [Ex. 3, (2R, 3R, 4S, 5R, 6E)-3,4,5-Trihydroxy-2-methoxy-8,8-dimethyl-N-[(3S, 6R)-hexahydro-2-oxo-6(cylohpetylcarbonyl)oxy-2H-azepin-3-yl]non-6-enamide]	39* %	0/8	28* %	0/8	IC50 [3]: 32 ± 14 nM
CO[C@@H](C(=O)N[C@H]1CC[C@@H](OC(=O)CC2CCCCC2)CNC1=O)[C@H](O)[C@@H](O)[C@H](O)/C=C/C(C)(C)C [Ex. 6, (2R, 3R, 4S, 5R, 6E)-3,4,5-Trihydroxy-2-methoxy-8,8-dimethyl-N-[(3S, 6R)-hexahydro-2-oxo-6-(cyclohexylmethylcarbonyl)oxy-2H-azepin-3-yl]non-6-enamide]	47* %	0/8	34* %	0/8	–
CO[C@@H](C(=O)N[C@H]1CC[C@@H](OC(=O)Cc2ccccc2)CNC1=O)[C@H](O)[C@@H](O)[C@H](O)/C=C/C(C)(C)C [Ex. 7, (2R, 3R, 4S, 5R, 6E)-3,4,5-Trihydroxy-2-methoxy-8,8-dimethyl-N-[(3S, 6R)-hexahydro-2-oxo-6-(1-oxo-2-phenylethoxy)-2H-azepin-3-yl]non-6-enamide.]	72%	0/8	43* %	0/8	IC50 [3]: 262 ± 70 nM
CO[C@@H](C(=O)N[C@H]1CC[C@@H](OC(=O)Cc2ccc(Cl)c(Cl)c2)CNC1=O)[C@H](O)[C@@H](O)[C@H](O)/C=C/C(C)(C)C [Ex. 8, (2R, 3R, 4S, 5R, 6E)-3,4,5-Trihydroxy-2-methoxy-8,8-dimethyl-N-[(3S, 6R)-hexahydro-2-oxo-6-(1-oxo-2-[3,4-dichlorophenyl]ethoxy)-2H-azepin-3-yl]non-6-enamide]	62%	0/8	67%	0/8	–
COc1ccc(CC(=O)O[C@@H]2CC[C@H](NC(=O)[C@H](OC)[C@H](O)[C@@H](O)[C@H](O)/C=C/C(C)(C)C)C(=O)NC2)cc1 [Ex. 9, (2R, 3R, 4S, 5R, 6E)-3,4,5-Trihydroxy-2-methoxy-8,8-dimethyl-N-[(3S, 6R)-hexahydro-2-oxo-6-(1-oxo-2-[4-methoxyphenyl]ethoxy)-2H-azepin-3-yl]non-6-enamide]	76%	0/8	48* %	0/8	–
CCCCCCCCCCOc1ccc(C(=O)O[C@@H]2CC[C@H](NC(=O)[C@H](OC)[C@H](O)[C@@H](O)[C@H](O)/C=C/C(C)(C)C)C(=O)NC2)cc1 [Ex. 10, (2R, 3R, 4S, 5R, 6E)-3,4,5-Trihydroxy-2-methoxy-8,8-dimethyl-N-[(3S, 6R)-hexahydro-2-oxo-6-([4-n-decyloxyphenyl]carbonyl)oxy-2H-azepin-3-yl]non-6-enamide]	64* %	0/8	2* %	0/8	Δ MTV [2, 7]: 4 mm^3; IC50 ([3]; Homo sapiens, MDA-MB-435, 72 h): 6 ± 4 nM
CO[C@@H](C(=O)N[C@H]1CC[C@@H](OC(=O)/C=C/c2ccccc2)CNC1=O)[C@H](O)[C@@H](O)[C@H](O)/C=C/C(C)(C)C [Ex. 11, (2R, 3R, 4S, 5R, 6E)-3,4,5-Trihydroxy-2-methoxy-8,8-dimethyl-N-[(3S, 6R)-hexahydro-2-oxo-6-(1-oxo-3-phenyl-2-propenoxy)-2H-azepin-3-yl]non-6-enamide]	–	0/8	–	0/8	Δ MTV [2, 6]: 135 mm^3; Δ MTV [2, 7]: 76 mm^3
CCCCCCCCCCc1ccc(C(=O)O[C@@H]2CC[C@H](NC(=O)[C@H](OC)[C@H](O)[C@@H](O)[C@H](O)/C=C/C(C)(C)C)C(=O)NC2)cc1 [Ex. 12, (2R, 3R, 4S, 5R, 6E)-3,4,5-Trihydroxy-2-methoxy-8,8-dimethyl-N-[(3S, 6R)-hexahydro-2-oxo-6-([4-n-decylphenyl]carbonyl)oxy-2H-azepin-3-yl]non-6-enamide]	52%	0/8	7* %	0/8	IC50 ([3]; Homo sapiens, MDA-MB-435, 72 h): 27 ± 37 nM
CO[C@@H](C(=O)N[C@H]1CC[C@@H](OC(=O)Cc2c[nH]c3ccccc23)CNC1=O)[C@H](O)[C@@H](O)[C@H](O)/C=C/C(C)(C)C [Ex. 14, (2R, 3R, 4S, 5R, 6E)-3,4,5-Trihydroxy-2-methoxy-8,8-dimethyl-N-[(3S, 6R)-hexahydro-2-oxo-6-(1-oxo-3-[3-indolyl]ethoxy)-2H-azepin-3-yl]non-6-enamide]	–	–	–	–	IC50 [3]: 1240 ± 196 nM
CO[C@@]12[C@H](COC(N)=O)C3=C(C(=O)C(C)=C(N)C3=O)N1C[C@@H]1N[C@@H]12 [Mitomycin C, reference compound]	–	–	–	–	% T/C [4, 8]: 20* %; Δ MTV [4, 8]: 15 mm^3; Dead/Total ([4]; mouse, in vivo): 0/8
CC(=O)O[C@H]1C(=O)[C@@]2(C)[C@H]([C@H](OC(=O)c3ccccc3)[C@]3(O)C[C@H](OC(=O)[C@H](O)[C@@H](NC(=O)c4ccccc4)c4ccccc4)C(C)=C1C3(C)C)[C@]1(OC(C)=O)CO[C@@H]1C[C@@H]2O [Paclitaxel, reference compound]	–	–	–	–	% regression [5]: 100 regression* %; Dead/Total [5]: 3/8; Δ MTV [5]: −103 mm^3
